Results taken from patent publication US8906826B2, “Herbicidal compositions comprising 4-amino-3-chloro-5-fluoro-6-(4-chloro-2-fluoro-3-methoxyphenyl) pyridine-2-carboxylic acid or a derivative thereof and imidazolinones” (Dow AgroSciences, LLC, priority 2012, dated 2014).

Columns and labels:
[1] = system: CYPES; test: Postemergence foliar-applied, direct seeded rice weeds (Example I); type: in vivo, Cyperus esculentus L.
Excerpt: (§1) Seeds or nutlets of the desired test plant species were planted in a soil matrix prepared by mixing a loam or sandy loam soil (e.g., 28.6 percent silt, 18.8 percent clay, and 52.6 percent sand, with a pH of about 5.8 and an organic matter content of about 1.8 percent) and calcareous grit in an 80 to 20 ratio. The soil matrix was contained in plastic pots with a volume of 1 quart and a surface area of 83.6 cm^2. When required to ensure good germination and healthy plants, a fungicide treatment and/or other chemical or physical treatment was applied. The plants were grown for 8-22 days in a greenhouse with an approximate 14 h photoperiod which was maintained at about 29° C. during the day and 26° C. during the night. Nutrients (Peters Excel® 15-5-15 5-Ca 2-Mg and iron chelate) were applied in the irrigation solution as needed and water was added on a regular basis. Supplemental lighting was provided with overhead metal halide 1000-Watt lamps as necessary. The plants were employed for testing when they reached the first through fourth true leaf stage.
(§2) Treatments consisted of the acid or esters of 4-amino-3-chloro-5-fluoro-6-(4-chloro-2-fluoro-3-methoxy-phenyl)pyridine-2-carboxylic acid (Compound A), each formulated as an SC (suspension concentrate), and various herbicidal components alone and in combination. Forms of compound A were applied on an acid equivalent basis.
(§3) Other herbicidal components were applied on an acid equivalent basis and include acetolactate synthase (ALS)-inhibiting herbicides (imidazolinone chemical class) imazethapyr ammonium salt formulated as Newpath®, imazamox ammonium salt formulated as Beyond®, imazapic ammonium salt formulated as Plateau®, imazapyr isopropylamine salt formulated as Arsenal®, imazamethabenz-methyl (technical material) and imazaquin isopropylamine salt formulated as Scepter®/Imagine®.
(§4) Treatment requirements were calculated based upon the rates being tested, the concentration of active ingredient or acid equivalent in the formulation, and a 12 mL application volume at a rate of 187 L/ha.
(§5) For treatments comprised of formulated compounds, measured amounts of compounds were placed individually in 25 mL glass vials and diluted in a volume of 1.25% (v/v) Agri-Dex® crop oil concentrated to obtain 12× stock solutions. […] Application solutions were prepared by adding an appropriate amount of each stock solution (e.g., 1 mL) and diluted to the appropriate final concentrations with the addition of 10 mL of an aqueous mixture of 1.25% (v/v) crop oil concentrate so that the final spray solutions contained 1.25+/−0.05% (v/v) crop oil concentrate.
(§6) For treatments comprised of technical compounds, weighed amounts can be placed individually in 25 mL glass vials and dissolved in a volume of 97:3 v/v acetone/DMSO to obtain 12× stock solutions. […] Application solutions can be prepared by adding an appropriate amount of each stock solution (e.g., 1 mL) and diluted to the appropriate final concentrations with the addition of 10 mL of an aqueous mixture of 1.5% (v/v) crop oil concentrate so that the final spray solutions contain 1.25% (v/v) crop oil concentrate. When technical materials are used, the concentrated stock solutions can be added to the spray solutions so that the final acetone and DMSO concentrations of the application solutions are 16.2% and 0.5%, respectively.
(§7) For treatments comprised of formulated and technical compounds, weighed amounts of the technical materials were placed individually in 25 mL glass vials and dissolved in a volume of 97:3 v/v acetone/DMSO to obtain 12× stock solutions, and measured amounts of the formulated compounds were placed individually in 25 mL glass vials and diluted in a volume of 1.5% (v/v) crop oil concentrate or water to obtain 12× stock solutions. […]

[2] = system: ECHCG; test: as above; type: in vivo, Echinochloa crusgalli (L.) Beauv.
Excerpt: as §1, §2, §3, §4, §5, §6, §7

[3] = system: AVEFA; test: Postemergence foliar-applied, general weed control (Example III); type: in vivo, Avena fatua L.
Protocol: Seeds or nutlets of the desired test plant species were planted in Sun Gro Metro-Mix® 360 planting mixture, which typically has a pH of about 6.0 to about 6.8 and an organic matter content of about 30 percent, in plastic pots with a surface area of 84.6 cm^2 and a volume of 560 cubic centimeters (cm^3). When required to ensure good germination and healthy plants, a fungicide treatment and/or other chemical or physical treatment was applied. The plants were grown for 7-31 days (d) in a greenhouse with an approximate 15 hour (h) photoperiod which was maintained at about 23-29° C. during the day and about 22-28° C. during the night. Nutrients (Peters Excel® 15-5-15 5-Ca 2-Mg) and water were added on a regular basis and supplemental lighting was provided with overhead metal halide 1000-Watt lamps as necessary. The plants were employed for testing when they reached the first, second, or third true leaf stage.
as §4
as §2, with “SC,” for “SC (suspension concentrate),”, “basis. […]” for “basis.”
For treatments comprised of formulated compounds, measured amounts of compounds were placed individually in 25 mL glass vials and diluted in a volume of 1.25% (v/v) Agri-Dex® crop oil concentrated to obtain 12× stock solutions. […]
The treated plants and control plants were placed in a greenhouse as described above and watered by sub-irrigation to prevent wash-off of the test compounds. After approximately 3 weeks, the condition of the test plants as compared with that of the untreated plants was determined visually and scored on a scale of 0 to 100 percent where 0 corresponds to no injury or growth inhibition and 100 corresponds to complete kill. […]

COCc1cnc(C2=NC(C)(C(C)C)C(=O)N2)c(C(=O)O)c1.N (racemic) [Imazamox ammonium, ammonium (±)-2-[4,5-dihydro-4-methyl-4-(1-methylethyl)-5-oxo-1H-imidazol-2-yl]-5-(methoxymethyl)-3-pyridinecarboxylate]
Visual Weed Control (%) - 25 DAA CYPES Obs ([1]; Imazamox ammonium 5.6 gae/ha): 0%
Visual Weed Control (%) - 25 DAA CYPES Obs ([1]; Imazamox ammonium 11.2 gae/ha): 0%
Visual Weed Control (%) - 25 DAA CYPES Obs ([1]; Imazamox ammonium 22.4 gae/ha): 20%
Visual Weed Control (%) - 25 DAA ECHCG Obs ([2]; Imazamox ammonium 5.6 gae/ha): 15%
Visual Weed Control (%) - 25 DAA ECHCG Obs ([2]; Imazamox ammonium 11.2 gae/ha): 20%
Visual Weed Control (%) - 25 DAA ECHCG Obs ([2]; Imazamox ammonium 22.4 gae/ha): 60%

Cc1cnc(C2=NC(C)(C(C)C)C(=O)N2)c(C(=O)O)c1.N (racemic) [Imazapic ammonium, ammonium (±)-2-[4,5-dihydro-4-methyl-4-(1-methylethyl)-5-oxo-1H-imidazol-2-yl]-5-methyl-3-pyridinecarboxylic acid]
Visual Weed Control (%) - 19 DAA AVEFA Obs ([3]; Imazapic ammonium 35 gae/ha): 70%
Visual Weed Control (%) - 25 DAA ECHCG Obs ([2]; Imazapic ammonium 4.38 gae/ha): 20%
Visual Weed Control (%) - 25 DAA ECHCG Obs ([2]; Imazapic ammonium 8.75 gae/ha): 40%

CCc1cnc(C2=NC(C)(C(C)C)C(=O)N2)c(C(=O)O)c1.N (racemic) [Imazethapyr ammonium, ammonium (±)-2-[4,5-dihydro-4-methyl-4-(1-methylethyl)-5-oxo-1H-imidazol-2-yl]-5-ethyl-3-pyridinecarboxylate]
Visual Weed Control (%) - 19 DAA AVEFA Obs ([3]; Imazethapyr ammonium 70 gae/ha): 80%
Visual Weed Control (%) - 25 DAA CYPES Obs ([1]; Imazethapyr ammonium 8.75 gae/ha): 0%

COc1c(Cl)ccc(-c2nc(C(=O)O)c(Cl)c(N)c2F)c1F [Compound A Acid, 4-amino-3-chloro-6-(4-chloro-2-fluoro-3-methoxyphenyl)-5-fluoropyridine-2-carboxylic acid]
Visual Weed Control (%) - 19 DAA AVEFA Obs ([3]; Compound A Acid 29 gae/ha): 10%
Visual Weed Control (%) - 25 DAA CYPES Obs ([1]; Compound A Acid 4.38 gae/ha): 50%
Visual Weed Control (%) - 25 DAA ECHCG Obs ([2]; Compound A Acid 4.38 gae/ha): 20%
Visual Weed Control (%) - 25 DAA ECHCG Obs ([2]; Compound A Acid 8.75 gae/ha): 50%

COc1c(Cl)ccc(-c2nc(C(=O)OCc3ccccc3)c(Cl)c(N)c2F)c1F [Compound A Benzyl Ester, benzyl ester of 4-amino-3-chloro-5-fluoro-6-(4-chloro-2-fluoro-3-methoxy-phenyl)pyridine-2-carboxylic acid]
Visual Weed Control (%) - 25 DAA CYPES Obs ([1]; Compound A Benzyl Ester 4.38 gae/ha): 70%
Visual Weed Control (%) - 25 DAA CYPES Obs ([1]; Compound A Benzyl Ester 8.75 gae/ha): 90%
Visual Weed Control (%) - 25 DAA CYPES Obs ([1]; Compound A Benzyl Ester 17.5 gae/ha): 85%
